Tests used:
[1] = grouping used to generate the distinguishing gene profiles; cited from earlier work
[2] = system: rat heart tissue; assay: GENECALLING differential gene expression analysis after dosing of serotonin modulating agents; assay type: in vivo, Sprague Dawley rats
Method in brief: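 GENECALLING profiling of cDNA from total RNA, keeping gene fragments modulated beyond ±1.5-fold. Tissue collected 24 h after final dosing of serotonin modulating agents; control rats received sterile water or canola oil.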

In the case of `CNCCC(Oc1ccc(C(F)(F)F)cc1)c1ccccc1` (stereo not drawn) [fluoxetine], the “classification as cardiotoxic or noncardiotoxic serotonin modulating agent” value [1] is listed as “noncardiotoxic”, the “Effects on Transcription Level: Novel gene fragment, 524 bp, 86% SI to mouse F-box protein FBX6b [AF176526]” value ([2]; CARDIOTOX 1) is listed as “+1.3 fold” and the “Effects on Transcription Level: Novel gene fragment, 306 bp, 91% SI to mouse low density lipoprotein receptor related protein 4 [AB013874]” value ([2]; CARDIOTOX 2) is listed as −1.3 fold. The “Effects on Transcription Level: Novel gene fragment, 540 bp, 97% SI to mouse skeletal muscle alpha-actin [X03766]” value ([2]; CARDIOTOX 3) was −1.2 fold, the “Effects on Transcription Level: Novel gene fragment, 80 bp” value ([2]; CARDIOTOX 4) was −1.3 fold and the “Effects on Transcription Level: Novel gene fragment, 957 bp, 99% SI to kidney injury associated moleculer HW036 [V80591]” value ([2]; CARDIOTOX 5) was −1.4 fold. For the same compound, the “Effects on Transcription Level: Novel gene fragment, 282 bp, 85% SI to human KIAA1515 protein [AB040948]” value ([2]; CARDIOTOX 6) was −1.2 fold, the “Effects on Transcription Level: Novel gene fragment, 405 bp, 88% SI to human 2-oxoglutarate dehydrogenase [D10523]” value ([2]; CARDIOTOX 7) was “+1.2 fold” and the “Effects on Transcription Level: UCP2” value ([2]; CARDIOTOX 8, GenBank AB010743) was −1.3 fold. The “Effects on Transcription Level: Plasma membrane Ca2 + ATPase-isoform 1” value ([2]; CARDIOTOX 9, GenBank J03753) was −1.1 fold, the “Effects on Transcription Level: Novel gene fragment, 242 bp, 97% SI to mouse HSP86 heat-shock protein [X16857]” value ([2]; CARDIOTOX 10) was “+1.4 fold” and the “Effects on Transcription Level: Novel gene fragment, 280 bp, 65% SI to human TRF1-interacting, ankyrin-related ADP-ribose polymerase [AF082556]” value ([2]; CARDIOTOX 11) was “+1.3 fold”. For the same compound, the “Effects on Transcription Level: Novel gene fragment, 348 bp, 88% SI to mouse Sec61 protein complex gamma subunit [U11027]” value ([2]; CARDIOTOX 12) was “+1.2 fold”, the “Effects on Transcription Level: Novel gene fragment 553 bp, 93% SI to mouse Sid329 [AB024984]” value ([2]; CARDIOTOX 13) was “+1.1 fold” and the “Effects on Transcription Level: Kruppel-like transcription factor” value ([2]; CARDIOTOX 14, GenBank AB020759) was “+1.3 fold”. For the same compound, the “Effects on Transcription Level: Ribosomal protein L3” value ([2]; CARDIOTOX 15, GenBank X62166) was “+1.1 fold”, the “Effects on Transcription Level: Glucose-regulated protein (GRP) 75” value ([2]; CARDIOTOX 16, GenBank S78556) was “+1.3 fold” and the “Effects on Transcription Level: Immunoglobulin heavy chain binding protein (BiP)” value ([2]; CARDIOTOX 17, GenBank M14050) was “+1.4 fold”. The “Effects on Transcription Level: Membrane-spannining proteoglycan NG2” value ([2]; CARDIOTOX 18, GenBank X56541) was −1.2 fold, the “Effects on Transcription Level: Novel gene fragment, 1294 bp, 96% SI to mouse Sui 1 (elF) homolog [AF129888]” value ([2]; CARDIOTOX 19) was “+1.1 fold” and the “Effects on Transcription Level: Novel gene fragment, 723 bp, 85% SI to human translation initiation factor elF3 p40 subunit [U54559]” value ([2]; CARDIOTOX 20) was “+1.0 fold”. The “Effects on Transcription Level: Novel gene fragment, 1324 bp, 76% SI to human flavoprotein subunit of complex II [D30648]” value ([2]; CARDIOTOX 21) was “+1.3 fold”, the “Effects on Transcription Level: Novel gene fragment, 852 bp, 81% SI to human vacuolar proton-ATPase subunit M9.2 [Y15286]” value ([2]; CARDIOTOX 22) was “+1.2 fold” and the “Effects on Transcription Level: Novel gene fragment, 178 bp, 91% SI to mouse myosin light chain-2 isoform MLC-2a [S70785]” value ([2]; CARDIOTOX 23) was “+1.3 fold”. The “Effects on Transcription Level: Novel gene fragment, 167 bp, 90% SI to mouse Rab20 [X80332]” value ([2]; CARDIOTOX 24) was −1.2 fold, the “Effects on Transcription Level: Novel gene fragment, 1070 bp, 80% SI to human muscle-specific protein [AF249873]” value ([2]; CARDIOTOX 25) was “+1.3 fold” and the “Effects on Transcription Level: Novel gene fragment, 1143 bp, 82% SI to human sarcoma amplified sequence (SAS) [U01160]” value ([2]; CARDIOTOX 26) was “+1.2 fold”. For the same compound, the “Effects on Transcription Level: Novel gene fragment, 74 bp,75% SI to human secreted protein [X30160] (from patent database)/[X97578] (from patent database)/potential cytokine)” value ([2]; CARDIOTOX 27) was “+1.2 fold”, the “Effects on Transcription Level: Novel gene fragment, 408 bp, 90% SI to human CGI-07 protein [AF132941]” value ([2]; CARDIOTOX 28) was “+1.2 fold” and the “Effects on Transcription Level: Novel gene fragment, 618 bp, 95% SI to rat progression related cDNA, ZNPE-120 3′ end partial sequence [patent database X90805]” value ([2]; CARDIOTOX 29) was “+1.4 fold”. The “Effects on Transcription Level: Novel gene fragment, 717 bp” value ([2]; CARDIOTOX 30) was “+1.2 fold”, the “Effects on Transcription Level: Novel gene fragment, 546 bp” value ([2]; CARDIOTOX 31) was “+1.1 fold” and the “Effects on Transcription Level: Novel gene fragment, 920 bp, 91% SI to human HSPC061 [AF161546]” value ([2]; CARDIOTOX 32) was “+1.4 fold”. The “Effects on Transcription Level: Novel gene fragment, 203 bp, 92% SI to rabbit sarcoplasmic reticulum glycoprotein [J04480]” value ([2]; CARDIOTOX 33) was −1.4 fold, the “Effects on Transcription Level: Novel gene fragment, 178 bp, 68% SI to mouse IgG receptor (beta-Fc-gamma-RII)[M63159]” value ([2]; CARDIOTOX 34) was “+1.3 fold” and the “Effects on Transcription Level: Ribosomal protein L6” value ([2]; CARDIOTOX 35, GenBank X87107) was “+1.2 fold”. The “Effects on Transcription Level: CAP2 protein (adenylyl cyclase-associated protein 2)” value ([2]; CARDIOTOX 36, GenBank U31935) was “+1.4 fold”, the “Effects on Transcription Level: Alpha-platelet-derived growth factor receptor” value ([2]; CARDIOTOX 37, GenBank M63837) was “+1.3 fold” and the “Effects on Transcription Level: Rab GD1 alpha protein” value ([2]; CARDIOTOX 38, GenBank X74402) was −1.3 fold. The “Effects on Transcription Level: PKC-zeta-interacting protein” value ([2]; CARDIOTOX 39, GenBank Y08355) was “+1.1 fold”, the “Effects on Transcription Level: ERK or MAP kinase” value ([2]; CARDIOTOX 40, GenBank X65198) was “+1.3 fold” and the “Effects on Transcription Level: Peroxisomal multifunctional enzyme type II” value ([2]; CARDIOTOX 41, GenBank U37486) was “+1.3 fold”. The “Effects on Transcription Level: HBP23 (heme-binding protein 23 kDa)” value ([2]; CARDIOTOX 42, GenBank D30035) was “+1.3 fold”, the “Effects on Transcription Level: Caveolae-associated protein” value ([2]; CARDIOTOX 43, GenBank U90725) was “+1.3 fold” and the “Effects on Transcription Level: Prenylated rab acceptor 1 (PRA1)” value ([2]; CARDIOTOX 44, GenBank AF025506) was “+1.2 fold”. For the same compound, the “Effects on Transcription Level: Novel gene fragment, 337 bp, 88% SI to rabbit cardiac ryanodine receptor (RyR-2)[U50465]” value ([2]; CARDIOTOX 45) was “+1.3 fold”, the “Effects on Transcription Level: Novel gene fragment, 81 bp, 85% SI to human titin [X90568]” value ([2]; CARDIOTOX 46) was −1.1 fold and the “Effects on Transcription Level: Novel gene fragment, 428 bp, 86% SI to human titin [X90568]” value ([2]; CARDIOTOX 47) was “+1.1 fold”. For the same compound, the “Effects on Transcription Level: Novel gene fragment, 374 bp, 88% SI to human titin [X90568]” value ([2]; CARDIOTOX 48) was “+1.1 fold”, the “Effects on Transcription Level: Novel gene fragment, 428 bp, 85% SI to human titin [90568]” value ([2]; CARDIOTOX 49) was −1.3 fold and the “Effects on Transcription Level: Novel gene fragment, 1216 bp, 93% SI to mouse mircotubule-associated protein (MAP) 1B protein [AF115776]” value ([2]; CARDIOTOX 50) was −1.2 fold. For the same compound, the “Effects on Transcription Level: Novel gene fragment, 1115 bp, 83% SI to human KIAA0549 protein [AB011121]” value ([2]; CARDIOTOX 51) was −1.4 fold, the “Effects on Transcription Level: Novel gene fragment, 153 bp” value ([2]; CARDIOTOX 52) was −1.4 fold and the “Effects on Transcription Level: Novel gene fragment, 89 bp, 93% SI to human putative glialblastoma cell differentiation-related protein (GBDR1) [AF068195]” value ([2]; CARDIOTOX 53) was −1.0 fold. For the same compound, the “Effects on Transcription Level: Rho-associated kinase beta” value ([2]; CARDIOTOX 54, GenBank U61266) was −1.2 fold, the “Effects on Transcription Level: Adenylate kinase 3” value ([2]; CARDIOTOX 55, GenBank D13062) was “+1.3 fold” and the “Effects on Transcription Level: Amyloid beta-peptide binding protein” value ([2]; CARDIOTOX 56, GenBank AF049878) was “+1.3 fold”. The “Effects on Transcription Level: Mitochondrial adenine nuleotide translocator” value ([2]; CARDIOTOX 57, GenBank D12771) was “+1.4 fold”, the “Effects on Transcription Level: Novel gene fragment, 710 bp, 94% SI to mouse chromatin structural protein homolog Supt5 hp (Supt5 h)[U88539]” value ([2]; CARDIOTOX 58) was “+2.8 fold” and the “Effects on Transcription Level: Novel gene fragment, 186 bp, 66% SI to human N-acetylglucosaminyltransferase 1 (GlcNAc-TI)[M55621]” value ([2]; CARDIOTOX 60) was −2.7 fold. The “Effects on Transcription Level: Novel gene fragment, 238 bp, 95% SI to mouse MAP kinase-activated protein kinase 2 [X76850]” value ([2]; CARDIOTOX 61) was −1.7 fold, the “Effects on Transcription Level: Novel gene fragment, 173 bp, 70% SI to G protein-coupled receptor kinase GRK4 [X97568]” value ([2]; CARDIOTOX 62) was −4.7 fold and the “Effects on Transcription Level: Novel gene fragment, 133 bp, 77% SI to human apoptosis related protein hSARP3 [patent database: V19114]” value ([2]; CARDIOTOX 63) was −2.6 fold. The “Effects on Transcription Level: Novel gene fragment, 477 bp, 98% SI to peroxisomal phytanoyl-CoA hydroxylase (PHYH) [AF121345]” value ([2]; CARDIOTOX 64) was “+3.7 fold”, the “Effects on Transcription Level: Novel gene fragment, 413 bp, 95% SI to mouse dihydrolipoamide dehydrogenase (Dld) [U73445]” value ([2]; CARDIOTOX 65) was “+2.0 fold” and the “Effects on Transcription Level: Novel gene fragment, 726 bp, 76% SI to human succinate dehydrogenase flavoprotein subunit (SDH) [L21936]” value ([2]; CARDIOTOX 66) was −4.4 fold. For the same compound, the “Effects on Transcription Level: Novel gene fragment, 440 bp, 92% SI to mouse cytochrome c oxidase Vllc [X52940]” value ([2]; CARDIOTOX 67) was “+2.1 fold”, the “Effects on Transcription Level: Novel gene fragment, 276 bp, 80% SI to human titin [X90568]” value ([2]; CARDIOTOX 68) was −11.0 fold and the “Effects on Transcription Level: Novel gene fragment, 149 bp, 70% SI to human titin [X90568]” value ([2]; CARDIOTOX 69) was −3.7 fold.

Source: patent US20040005537A1, “Method of identifying toxic agents using differential gene expression” (priority 2000, published 2004)
